ChEMBL document CHEMBL1138653, “Screening of antimicrobial activity of diarylamines in the 2,3,5-trimethylbenzo[b]thiophene series: a structure-activity evaluation study” (2004)
Values after ≈ are worked out from the molar mass of the structure shown. Active and inactive are the calls of the source. No cut-off for these calls is given here.

What was measured:
Bacillus subtilis [1] = assay: inhibition of Bacillus subtilis was measured by zone diameter; assay type: functional
Bacillus cereus [2] = assay: Minimal inhibitory concentration against Bacillus cereus; assay type: functional
Escherichia coli [3] = assay: Minimal inhibitory concentration against Escherichia coli; Not active; assay type: functional, organism-based
Bacillus subtilis [4] = assay: Minimal inhibitory concentration against Bacillus subtilis; assay type: functional
Pseudomonas aeruginosa [5] = assay: Minimal inhibitory concentration against Pseudomonas aeruginosa; Not active; assay type: functional, organism-based
Bacillus cereus [6] = assay: inhibition of Bacillus cereus was measured by zone diameter; assay type: functional
Escherichia coli [7] = assay: Minimal inhibitory concentration against Escherichia coli; assay type: functional
Pseudomonas aeruginosa [8] = assay: Minimal inhibitory concentration against Pseudomonas aeruginosa; assay type: functional
Escherichia coli [9] = assay: Diameter of the inhibition zone of Escherichia coli upon administration of compound; assay type: functional
Pseudomonas aeruginosa [10] = assay: inhibition of Pseudomonas aeruginosa was measured by zone diameter; assay type: functional
Candida albicans [11] = assay: Minimal inhibitory concentration against Candida albicans; Not active; assay type: functional, organism-based
Candida albicans [12] = assay: inhibition of Candida albicans was measured by zone diameter; assay type: functional
Candida albicans [13] = assay: Minimal inhibitory concentration against Candida albicans; assay type: functional
Bacillus cereus [14] = assay: Minimal inhibitory concentration against Bacillus cereus (CECT 148) strain; Not active; assay type: functional, organism-based
Candida albicans [15] = assay: Minimal inhibitory concentration against Candida albicans (CECT 1394) strain; Not active; assay type: functional, organism-based
Bacillus subtilis [16] = assay: Minimal inhibitory concentration against Bacillus subtilis (CECT 498) strain; Not active; assay type: functional, organism-based
Escherichia coli [17] = assay: Minimal inhibitory concentration against Escherichia coli (CECT 101) strain; Not active; assay type: functional, organism-based
Pseudomonas aeruginosa [18] = assay: Minimal inhibitory concentration against Pseudomonas aeruginosa (CECT 108) strain; Not active; assay type: functional, organism-based
Escherichia coli [19] = assay: inhibition of Escherichia coli was measured by zone diameter; assay type: functional

MIC (Bacillus cereus [2]) [µg/mL] | MIC (Escherichia coli [3]) | MIC (Bacillus subtilis [4]) [µg/mL] | MIC (Pseudomonas aeruginosa [5]) | MIC (Escherichia coli [7]) [µg/mL] | MIC (Pseudomonas aeruginosa [8]) [µg/mL] | MIC (Candida albicans [11]) | MIC (Candida albicans [13]) [µg/mL] | MIC (Bacillus cereus [14]) | MIC (Candida albicans [15]) | MIC (Bacillus subtilis [16]) | MIC (Escherichia coli [17]) | MIC (Pseudomonas aeruginosa [18]) | Structure (SMILES) | Inhibition (Bacillus subtilis [1]) [mm] | Inhibition (Bacillus cereus [6]) [mm] | Inhibition (Escherichia coli [9]) [mm] | Inhibition (Pseudomonas aeruginosa [10]) [mm] | Inhibition (Candida albicans [12]) [mm] | Inhibition (Escherichia coli [19]) [mm]
200 (≈ 701 µM) | inactive | 200 (≈ 701 µM) | inactive |  |  |  |  |  |  |  |  |  | Cc1cc2c(C)c(C)sc2cc1Nc1ccc(F)cc1 | 10 | 12 |  |  |  | 
200 (≈ 748 µM) |  | 200 (≈ 748 µM) |  | 200 (≈ 748 µM) | 200 (≈ 748 µM) |  |  |  |  |  |  |  | Cc1cc2c(C)c(C)sc2cc1Nc1ccccc1 | 8 | 18 | 4 | 16 |  | 
1000 (≈ 3920 µM) | inactive | 500 (≈ 1960 µM) | inactive |  |  | inactive |  |  |  |  |  |  | Cc1cc2c(C)c(C)sc2cc1Br | 18 | 12 |  |  |  | 
500 (≈ 2610 µM) | inactive | 500 (≈ 2610 µM) | inactive |  |  |  | 1000 (≈ 5230 µM) |  |  |  |  |  | Cc1cc2c(C)c(C)sc2cc1N | 17 | 10 |  |  | 13 | 
 |  |  |  |  |  |  |  | inactive | inactive | inactive | inactive | inactive | Cc1ccc2sc(C)c(C)c2c1 |  |  |  |  |  | 
100 (≈ 336 µM) |  | 50 (≈ 168 µM) |  | 1000 (≈ 3360 µM) | 1000 (≈ 3360 µM) |  | 12.5 (≈ 42 µM) |  |  |  |  |  | COc1ccc(Nc2cc3sc(C)c(C)c3cc2C)cc1 | 19 | 4 | 4 | 8 | 6 | 
3.13 (≈ 9.69 µM) |  |  |  |  |  |  |  |  |  |  |  |  | O=C(N[C@H](CO)[C@H](O)c1ccc([N+](=O)[O-])cc1)C(Cl)Cl [CHLORAMPHENICOL] |  | 8 |  |  |  | 
200 (≈ 701 µM) | inactive | 50 (≈ 175 µM) |  |  |  |  |  |  |  |  |  |  | Cc1cc2c(C)c(C)sc2cc1Nc1ccccc1F | 8 | 9 |  |  |  | 
200 (≈ 611 µM) | inactive | 200 (≈ 611 µM) |  |  | 1000 (≈ 3050 µM) |  | 25 (≈ 76.3 µM) |  |  |  |  |  | COc1ccc(Nc2cc3sc(C)c(C)c3cc2C)cc1OC | 10 | 24 |  | 10 | 8 | 

Structure (SMILES) | MIC (Bacillus cereus [2]) [µg/mL] | MIC (Escherichia coli [3]) | MIC (Bacillus subtilis [4]) [µg/mL] | MIC (Pseudomonas aeruginosa [5]) | MIC (Escherichia coli [7]) [µg/mL] | MIC (Pseudomonas aeruginosa [8]) [µg/mL] | MIC (Candida albicans [11]) | MIC (Candida albicans [13]) [µg/mL] | MIC (Bacillus cereus [14]) | MIC (Candida albicans [15]) | MIC (Bacillus subtilis [16]) | MIC (Escherichia coli [17]) | MIC (Pseudomonas aeruginosa [18]) | Inhibition (Bacillus subtilis [1]) [mm] | Inhibition (Bacillus cereus [6]) [mm] | Inhibition (Escherichia coli [9]) [mm] | Inhibition (Pseudomonas aeruginosa [10]) [mm] | Inhibition (Candida albicans [12]) [mm] | Inhibition (Escherichia coli [19]) [mm]
CC1(C)S[C@@H]2[C@H](NC(=O)[C@H](N)c3ccccc3)C(=O)N2[C@H]1C(=O)O [AMPICILLIN] | 3.13 (≈ 8.96 µM) |  | 12.5 (≈ 35.8 µM) |  | 6.25 (≈ 17.9 µM) | 6.25 (≈ 17.9 µM) |  |  |  |  |  |  |  | 10 | 13 |  | 12 |  | 15
